In patent US11021457B2, “Class of isoindolone-imide ring-1,3-dione-2-ene compounds, composition and use thereof” (WIGEN BIOMEDICINE TECHNOLOGY (SHANGHAI) CO., LTD., priority 2017, dated 2021):

These molecules were tested on BxPC-3 (assay: Inhibition of tumor cell proliferation, CellTiter-Glo, BxPC-3). Details: Homo sapiens, BXPC-3; compound concentration 50 μM, 72 hours; read-out: Inhibitory activity against proliferation (cell survival rate) BxPC-3.
Type: cell-based
Summary of the method: (§1)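 Luminescent ATP read-out (CellTiter-Glo) after 72 hours gave survival relative to untreated wells, corrected for blank. Activity categories were assigned from survival at 50 μM: ≤30% high, >30-60% moderate, 60-<90% low.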
`O=C1CCC(N2Cc3c(N/C=C4\C(=O)CC(c5ccccc5)OC4=O)cccc3C2=O)C(=O)N1` (stereo not drawn) [Compound 112] gave a cell survival rate (%) at 50 µM of 30 to 60%. For `O=C1CCC(N2Cc3c(NC=C4C(=O)NC(c5ccccc5)NC4=O)cccc3C2=O)C(=O)N1` (stereo not drawn) [Compound 115], the cell survival rate (%) at 50 µM was 60 to 90%. `O=C1CCC(N2Cc3c(NC=C4C(=O)CN(c5ccccc5)CC4=O)cccc3C2=O)C(=O)N1` (stereo not drawn) [Compound 119] gave a cell survival rate (%) at 50 µM of 30 to 60%. For `O=C1CCC(N2Cc3c(N/C=C4\C(=O)CC(Cc5ccccc5)C4=O)cccc3C2=O)C(=O)N1` (stereo not drawn) [Compound 121], the cell survival rate (%) at 50 µM was 60 to 90%. In the case of `O=C1CCC(N2Cc3c(N/C=C4\C(=O)CCC(c5ccccc5)CC4=O)cccc3C2=O)C(=O)N1` (stereo not drawn) [Compound 124], the cell survival rate (%) at 50 µM was 30 to 60%. In the case of `O=C1CCC(N2Cc3c(N/C=C4\C(=O)CC(c5ccccc5)NC4=O)cccc3C2=O)C(=O)N1` (stereo not drawn) [Compound 126], the cell survival rate (%) at 50 µM was 30 to 60%. With `CC1C(=O)/C(=C/Nc2cccc3c2CN(C2CCC(=O)NC2=O)C3=O)C(=O)CC1c1ccccc1` (stereo not drawn) [Compound 127] the cell survival rate (%) at 50 µM was 60 to 90%. In the case of `O=C1CCC(N2Cc3c(N/C=C4\C(=O)Nc5cc(C(F)(F)F)ccc5C4=O)cccc3C2=O)C(=O)N1` (stereo not drawn) [Compound 137], the cell survival rate (%) at 50 µM was 30 to 60%. In the case of `O=C1CCC(N2Cc3c(N/C=C4\C(=O)Nc5c(ccc6ccccc56)C4=O)cccc3C2=O)C(=O)N1` (stereo not drawn) [Compound 138], the cell survival rate (%) at 50 µM was 60 to 90%.

The molecules below were run on A549 (assay: Inhibition of tumor cell proliferation, CellTiter-Glo, A549). Details: Homo sapiens, A549; compound concentration 50 μM, 72 hours; read-out: Inhibitory activity against proliferation (cell survival rate) A549.
Type: cell-based
Summary of the method: as §1
Molecule `O=C1CCC(N2Cc3c(N/C=C4\C(=O)CC(c5ccccc5)OC4=O)cccc3C2=O)C(=O)N1` (stereo not drawn) [Compound 112] has a cell survival rate (% of control) at 50 µM of 60 to 90%. Work on `O=C1CCC(N2Cc3c(NC=C4C(=O)NC(c5ccccc5)NC4=O)cccc3C2=O)C(=O)N1` (stereo not drawn) [Compound 115] yielded a cell survival rate (% of control) at 50 µM of 30 to 60%. For `O=C1CCC(N2Cc3c(NC=C4C(=O)CN(c5ccccc5)CC4=O)cccc3C2=O)C(=O)N1` (stereo not drawn) [Compound 119], the cell survival rate (% of control) at 50 µM was 60 to 90%. In the case of `O=C1CCC(N2Cc3c(N/C=C4\C(=O)CC(Cc5ccccc5)C4=O)cccc3C2=O)C(=O)N1` (stereo not drawn) [Compound 121], the cell survival rate (% of control) at 50 µM was 60 to 90%. `O=C1CCC(N2Cc3c(N/C=C4\C(=O)CCC(c5ccccc5)CC4=O)cccc3C2=O)C(=O)N1` (stereo not drawn) [Compound 124] gave a cell survival rate (% of control) at 50 µM of 60 to 90%. `O=C1CCC(N2Cc3c(N/C=C4\C(=O)CC(c5ccccc5)NC4=O)cccc3C2=O)C(=O)N1` (stereo not drawn) [Compound 126] showed a cell survival rate (% of control) at 50 µM of 60 to 90%. In the case of `CC1C(=O)/C(=C/Nc2cccc3c2CN(C2CCC(=O)NC2=O)C3=O)C(=O)CC1c1ccccc1` (stereo not drawn) [Compound 127], the cell survival rate (% of control) at 50 µM was 60 to 90%. `O=C1CCC(N2Cc3c(N/C=C4\C(=O)Nc5cc(C(F)(F)F)ccc5C4=O)cccc3C2=O)C(=O)N1` (stereo not drawn) [Compound 137] was tested, and the cell survival rate (% of control) at 50 µM was 60 to 90%. For `O=C1CCC(N2Cc3c(N/C=C4\C(=O)Nc5c(ccc6ccccc56)C4=O)cccc3C2=O)C(=O)N1` (stereo not drawn) [Compound 138], the cell survival rate (% of control) at 50 µM was no more than 30%.

The molecules below were run on MDA-MB-453 (assay: Inhibition of tumor cell proliferation, CellTiter-Glo, MDA-MB-453). Details: Homo sapiens, MDA-MB-453; compound concentration 50 μM, 72 hours; read-out: Inhibitory activity against proliferation (cell survival rate) MDA-MB-453.
Type: cell-based
Summary of the method: as §1
In the case of `O=C1CCC(N2Cc3c(N/C=C4\C(=O)CC(c5ccccc5)OC4=O)cccc3C2=O)C(=O)N1` (stereo not drawn) [Compound 112], the cell survival rate (%) at 50 µM was 30 to 60%. With `O=C1CCC(N2Cc3c(NC=C4C(=O)NC(c5ccccc5)NC4=O)cccc3C2=O)C(=O)N1` (stereo not drawn) [Compound 115] the cell survival rate (%) at 50 µM was no more than 30%. In the case of `O=C1CCC(N2Cc3c(NC=C4C(=O)CN(c5ccccc5)CC4=O)cccc3C2=O)C(=O)N1` (stereo not drawn) [Compound 119], the cell survival rate (%) at 50 µM was 30 to 60%. For `O=C1CCC(N2Cc3c(N/C=C4\C(=O)CC(Cc5ccccc5)C4=O)cccc3C2=O)C(=O)N1` (stereo not drawn) [Compound 121], the cell survival rate (%) at 50 µM was 30 to 60%. With `O=C1CCC(N2Cc3c(N/C=C4\C(=O)CCC(c5ccccc5)CC4=O)cccc3C2=O)C(=O)N1` (stereo not drawn) [Compound 124] the cell survival rate (%) at 50 µM was no more than 30%. `O=C1CCC(N2Cc3c(N/C=C4\C(=O)CC(c5ccccc5)NC4=O)cccc3C2=O)C(=O)N1` (stereo not drawn) [Compound 126] gave a cell survival rate (%) at 50 µM of 60 to 90%. For `CC1C(=O)/C(=C/Nc2cccc3c2CN(C2CCC(=O)NC2=O)C3=O)C(=O)CC1c1ccccc1` (stereo not drawn) [Compound 127], the cell survival rate (%) at 50 µM was 60 to 90%. `O=C1CCC(N2Cc3c(N/C=C4\C(=O)Nc5cc(C(F)(F)F)ccc5C4=O)cccc3C2=O)C(=O)N1` (stereo not drawn) [Compound 137] gave a cell survival rate (%) at 50 µM of 60 to 90%. `O=C1CCC(N2Cc3c(N/C=C4\C(=O)Nc5c(ccc6ccccc56)C4=O)cccc3C2=O)C(=O)N1` (stereo not drawn) [Compound 138] was tested, and the cell survival rate (%) at 50 µM was no more than 30%.

The molecules below were run on K562 (assay: Inhibition of tumor cell proliferation, CellTiter-Glo, K562). Details: Homo sapiens, K562; compound concentration 50 μM, 72 hours; read-out: Inhibitory activity against proliferation (cell survival rate) K562.
Type: cell-based
Summary of the method: as §1
For `O=C1CCC(N2Cc3c(N/C=C4\C(=O)CC(c5ccccc5)OC4=O)cccc3C2=O)C(=O)N1` (stereo not drawn) [Compound 112], the cell survival rate (%) at 50 µM was 30 to 60%. Molecule `O=C1CCC(N2Cc3c(NC=C4C(=O)NC(c5ccccc5)NC4=O)cccc3C2=O)C(=O)N1` (stereo not drawn) [Compound 115] has a cell survival rate (%) at 50 µM of 30 to 60%. Work on `O=C1CCC(N2Cc3c(NC=C4C(=O)CN(c5ccccc5)CC4=O)cccc3C2=O)C(=O)N1` (stereo not drawn) [Compound 119] yielded a cell survival rate (%) at 50 µM of 30 to 60%. Work on `O=C1CCC(N2Cc3c(N/C=C4\C(=O)CC(Cc5ccccc5)C4=O)cccc3C2=O)C(=O)N1` (stereo not drawn) [Compound 121] yielded a cell survival rate (%) at 50 µM of 30 to 60%. In the case of `O=C1CCC(N2Cc3c(N/C=C4\C(=O)CCC(c5ccccc5)CC4=O)cccc3C2=O)C(=O)N1` (stereo not drawn) [Compound 124], the cell survival rate (%) at 50 µM was 60 to 90%. For `O=C1CCC(N2Cc3c(N/C=C4\C(=O)CC(c5ccccc5)NC4=O)cccc3C2=O)C(=O)N1` (stereo not drawn) [Compound 126], the cell survival rate (%) at 50 µM was 60 to 90%. Work on `CC1C(=O)/C(=C/Nc2cccc3c2CN(C2CCC(=O)NC2=O)C3=O)C(=O)CC1c1ccccc1` (stereo not drawn) [Compound 127] yielded a cell survival rate (%) at 50 µM of 60 to 90%. For `O=C1CCC(N2Cc3c(N/C=C4\C(=O)Nc5cc(C(F)(F)F)ccc5C4=O)cccc3C2=O)C(=O)N1` (stereo not drawn) [Compound 137], the cell survival rate (%) at 50 µM was 30 to 60%. `O=C1CCC(N2Cc3c(N/C=C4\C(=O)Nc5c(ccc6ccccc56)C4=O)cccc3C2=O)C(=O)N1` (stereo not drawn) [Compound 138] gave a cell survival rate (%) at 50 µM of 30 to 60%.

The molecules below were run on SU-DHL6 (assay: Inhibition of tumor cell proliferation, CellTiter-Glo, SU-DHL6). Details: Homo sapiens, SU-DHL-6; compound concentration 50 μM, 72 hours; read-out: Inhibitory activity against proliferation (cell survival rate) SU-DHL6.
Type: cell-based
Summary of the method: as §1
For `O=C1CCC(N2Cc3c(N/C=C4\C(=O)CC(c5ccccc5)OC4=O)cccc3C2=O)C(=O)N1` (stereo not drawn) [Compound 112], the cell survival rate (% of control) at 50 µM was 60 to 90%. `O=C1CCC(N2Cc3c(NC=C4C(=O)NC(c5ccccc5)NC4=O)cccc3C2=O)C(=O)N1` (stereo not drawn) [Compound 115] showed a cell survival rate (% of control) at 50 µM of 30 to 60%. Work on `O=C1CCC(N2Cc3c(NC=C4C(=O)CN(c5ccccc5)CC4=O)cccc3C2=O)C(=O)N1` (stereo not drawn) [Compound 119] yielded a cell survival rate (% of control) at 50 µM of 30 to 60%. Work on `O=C1CCC(N2Cc3c(N/C=C4\C(=O)CC(Cc5ccccc5)C4=O)cccc3C2=O)C(=O)N1` (stereo not drawn) [Compound 121] yielded a cell survival rate (% of control) at 50 µM of no more than 30%. For `O=C1CCC(N2Cc3c(N/C=C4\C(=O)CCC(c5ccccc5)CC4=O)cccc3C2=O)C(=O)N1` (stereo not drawn) [Compound 124], the cell survival rate (% of control) at 50 µM was 60 to 90%. Work on `O=C1CCC(N2Cc3c(N/C=C4\C(=O)CC(c5ccccc5)NC4=O)cccc3C2=O)C(=O)N1` (stereo not drawn) [Compound 126] yielded a cell survival rate (% of control) at 50 µM of 60 to 90%. `CC1C(=O)/C(=C/Nc2cccc3c2CN(C2CCC(=O)NC2=O)C3=O)C(=O)CC1c1ccccc1` (stereo not drawn) [Compound 127] showed a cell survival rate (% of control) at 50 µM of no more than 30%. For `O=C1CCC(N2Cc3c(N/C=C4\C(=O)Nc5cc(C(F)(F)F)ccc5C4=O)cccc3C2=O)C(=O)N1` (stereo not drawn) [Compound 137], the cell survival rate (% of control) at 50 µM was no more than 30%. In the case of `O=C1CCC(N2Cc3c(N/C=C4\C(=O)Nc5c(ccc6ccccc56)C4=O)cccc3C2=O)C(=O)N1` (stereo not drawn) [Compound 138], the cell survival rate (% of control) at 50 µM was no more than 30%.

The molecules below were run on RPMI-8226 (assay: Inhibition of tumor cell proliferation, CellTiter-Glo, RPMI-8226). Details: Homo sapiens, RPMI-8226; compound concentration 50 μM, 72 hours; read-out: Inhibitory activity against proliferation (cell survival rate) RPMI-8226.
Type: cell-based
Summary of the method: as §1
Molecule `O=C1CCC(N2Cc3c(N/C=C4\C(=O)CC(c5ccccc5)OC4=O)cccc3C2=O)C(=O)N1` (stereo not drawn) [Compound 112] has a cell survival rate (% of control) at 50 µM of 30 to 60%. With `O=C1CCC(N2Cc3c(NC=C4C(=O)NC(c5ccccc5)NC4=O)cccc3C2=O)C(=O)N1` (stereo not drawn) [Compound 115] the cell survival rate (% of control) at 50 µM was 60 to 90%. In the case of `O=C1CCC(N2Cc3c(NC=C4C(=O)CN(c5ccccc5)CC4=O)cccc3C2=O)C(=O)N1` (stereo not drawn) [Compound 119], the cell survival rate (% of control) at 50 µM was 30 to 60%. `O=C1CCC(N2Cc3c(N/C=C4\C(=O)CC(Cc5ccccc5)C4=O)cccc3C2=O)C(=O)N1` (stereo not drawn) [Compound 121] gave a cell survival rate (% of control) at 50 µM of no more than 30%. Molecule `O=C1CCC(N2Cc3c(N/C=C4\C(=O)CCC(c5ccccc5)CC4=O)cccc3C2=O)C(=O)N1` (stereo not drawn) [Compound 124] has a cell survival rate (% of control) at 50 µM of 60 to 90%. `O=C1CCC(N2Cc3c(N/C=C4\C(=O)CC(c5ccccc5)NC4=O)cccc3C2=O)C(=O)N1` (stereo not drawn) [Compound 126] was tested, and the cell survival rate (% of control) at 50 µM was no more than 30%. `CC1C(=O)/C(=C/Nc2cccc3c2CN(C2CCC(=O)NC2=O)C3=O)C(=O)CC1c1ccccc1` (stereo not drawn) [Compound 127] showed a cell survival rate (% of control) at 50 µM of 60 to 90%. `O=C1CCC(N2Cc3c(N/C=C4\C(=O)Nc5cc(C(F)(F)F)ccc5C4=O)cccc3C2=O)C(=O)N1` (stereo not drawn) [Compound 137] gave a cell survival rate (% of control) at 50 µM of no more than 30%. `O=C1CCC(N2Cc3c(N/C=C4\C(=O)Nc5c(ccc6ccccc56)C4=O)cccc3C2=O)C(=O)N1` (stereo not drawn) [Compound 138] was tested, and the cell survival rate (% of control) at 50 µM was 30 to 60%.
